{"source": "patent US20200031825A1", "about": "“HETEROAROMATIC-FUSED IMIDAZOLYL AMIDES, COMPOSITIONS AND USES THEREOF AS STING AGONISTS” (Trillium Therapeutics Inc., priority 2018, published 2020)", "key": {"[1]": {"molecular_target": "hSTING-wt (Homo sapiens, UniProt Q86WV6)", "sequence (Q86WV6 whole entry H232R)": "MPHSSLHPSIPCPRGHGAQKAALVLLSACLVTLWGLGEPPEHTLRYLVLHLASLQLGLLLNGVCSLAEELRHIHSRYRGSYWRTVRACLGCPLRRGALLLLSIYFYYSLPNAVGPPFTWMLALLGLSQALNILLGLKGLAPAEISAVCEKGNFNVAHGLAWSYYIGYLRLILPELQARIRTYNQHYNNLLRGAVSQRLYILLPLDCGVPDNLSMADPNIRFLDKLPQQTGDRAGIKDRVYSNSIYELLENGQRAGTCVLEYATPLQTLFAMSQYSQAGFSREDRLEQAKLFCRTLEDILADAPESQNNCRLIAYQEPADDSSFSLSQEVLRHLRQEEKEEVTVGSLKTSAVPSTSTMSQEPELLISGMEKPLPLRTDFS", "experiment": "Cellular Functional Assay I: ISRE-SEAP reporter in HEK-293T-Dual Null cells transfected with hSTING-wt", "type": "cell-based"}, "[2]": {"molecular_target": "hSTING-H232 (Homo sapiens, UniProt Q86WV6)", "sequence (Q86WV6 whole entry)": "as the sequence (Q86WV6 whole entry H232R) above, with R232H counted along it", "experiment": "Cellular Functional Assay I: ISRE-SEAP reporter in HEK-293T-Dual Null cells transfected with hSTING-H232", "type": "cell-based"}, "[3]": {"molecular_target": "hSTING-HAQ (Homo sapiens, UniProt Q86WV6, G230A/H232R/R293Q/R71H)", "sequence (Q86WV6 whole entry R71H/G230A/H232R/R293Q)": "as the sequence (Q86WV6 whole entry H232R) above, with R71H, G230A, R293Q counted along it", "experiment": "Cellular Functional Assay I: ISRE-SEAP reporter in HEK-293T-Dual Null cells transfected with hSTING-HAQ", "type": "cell-based"}, "[4]": {"molecular_target": "T1, hSTING-AQ (Homo sapiens, UniProt Q86WV6, G230A/R293Q)", "T1 construct": "expressed in transfected cells", "T1 sequence (Q86WV6 whole entry G230A/H232R/R293Q)": "as the sequence (Q86WV6 whole entry H232R) above, with G230A, R293Q counted along it", "experiment": "Cellular Functional Assay I: ISRE-SEAP reporter, hSTING-AQ allele", "type": "cell-based"}, "[5]": {"molecular_target": "T2, hSTING-Q (Homo sapiens, UniProt Q86WV6, R293Q)", "T2 construct": "expressed in transfected cells", "T2 sequence (Q86WV6 whole entry R293Q)": "as the sequence (Q86WV6 whole entry H232R) above, with R232H, R293Q counted along it", "experiment": "Cellular Functional Assay I: ISRE-SEAP reporter, hSTING-Q allele", "type": "cell-based"}, "[6]": {"molecular_target": "T3, mSTING-wt (Mus musculus, UniProt Q3TBT3)", "T3 sequence (Q3TBT3 1-378)": "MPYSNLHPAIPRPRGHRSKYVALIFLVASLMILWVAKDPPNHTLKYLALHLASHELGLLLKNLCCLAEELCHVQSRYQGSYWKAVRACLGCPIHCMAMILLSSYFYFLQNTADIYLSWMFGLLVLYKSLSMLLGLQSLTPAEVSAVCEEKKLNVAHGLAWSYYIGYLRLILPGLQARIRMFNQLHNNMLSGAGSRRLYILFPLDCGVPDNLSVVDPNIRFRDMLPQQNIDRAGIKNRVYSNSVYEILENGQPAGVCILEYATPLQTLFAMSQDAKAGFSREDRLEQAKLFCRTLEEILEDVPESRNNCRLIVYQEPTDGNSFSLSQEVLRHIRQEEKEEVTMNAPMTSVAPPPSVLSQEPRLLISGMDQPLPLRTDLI", "experiment": "Cellular Functional Assay I: ISRE-SEAP reporter in HEK-293T-Dual Null cells transfected with mouse STING", "type": "cell-based", "details": "SEAP reporter"}, "[7]": {"test_system": "human dendritic cells (h-DCs)", "experiment": "Cellular Functional Assay II: secreted IFN-β from human dendritic cells", "type": "cell-based", "details": "h-DC", "protocol": "(§1) Activation of STING in primary cells was determined by measuring levels of secreted IFN-β from human monocyte-derived macrophages (h-MDMs)/dendritic cells (h-DCs) and/or mouse dendritic cells (m-DCs) after treatment with A.\n(§2) Human CD14+ cells were first isolated from human peripheral blood mononuclear cells (PBMCs) with Stemcell Easysep Monocyte Isolation™ kit. Human CD14+ cells were kept in conditioned media for 7-12 days to generate h-MDMs and h-DCs before use. After harvesting from C57BL/6 mouse femurs, bone marrow cells were culture in conditioned media for 7 days to generate m-DCs before use.\n(§3) The Culture conditions for the various types of cells whereas noted in Table 2:\n(§4) 0.5×10^6 cells in 50 ul buffer (50 mM HEPES, pH7.0; 100 mM KCl; 3 mM MgCl2, 0.1 mM DTT; 85 mM Sucrose; 0.2% BSA, 1 mM ATP) in 96-well round bottom plate. Compound (formulated in DMSO) or DMSO (control) were added into each well and the plate incubate at 37° C. for 30 minutes. Cells were washed twice with 100 uL of fresh media and incubated at 37° C. for an additional 6 hours. After 6 hour of incubation, the supernatant was collected and a Cytometry Bead Assay™ (CBA, BioLegend) was used to measure […] levels."}, "[8]": {"test_system": "mouse dendritic cells (m-DCs)", "experiment": "Cellular Functional Assay II: secreted IFN-β from mouse dendritic cells", "type": "cell-based", "details": "m-DC, 10 uM", "protocol": "as §1, §2, §3, §4"}, "[9]": {"test_system": "murine A20 model of B cell lymphoma", "experiment": "In vivo syngeneic A20 mouse tumor model", "details": "Balb/c mice", "protocol": "The in vivo efficacy of exemplary compound I(c) was evaluated in a murine A20 model of B cell lymphoma. A20 cells were maintained in RPMI1640/10% FBS. Approximately 4×10^6 A20 cells were injected subcutaneously in 0.1 mL PBS into the right flanks of immunocompetent female Balb/c mice. Tumors were permitted to grow for six days after initial inoculation before the animals were segregated into treatment group. Study groups were treated with 25 μg of B formulated in an appropriate vehicle. Exemplary compound B was dosed intratumorally at the proximal tumor (right flank) on days 6, 8, and 11 of the study. Only animals in good health were used for dosing. Since the effects of the test article on the animals were not known, animals were closely observed for 1 h following dosing and at each tumor measurement time point over the course of the study. Any adverse reactions to the administration of the test material were noted and tabulated. […] Systemic toxicity of the treatments was evaluated by body weight change. Tumor volume was measured every 2 days using standard caliper measurement techniques."}, "[10]": {"details": "A20 tumor, 25 μg intratumorally on days 6, 8 and 11"}}, "note": "pEC50: −log10 of the molar value."}
{"smiles": "CCn1nc(C)cc1C(=O)Nc1nc2cc(C(N)=O)cnc2n1C/C=C/Cn1c(NC(=O)c2cc(C)nn2CC)nc2cc(C(N)=O)cc(C)c21.Cl.Cl.Cl.Cl", "note": "[Compound B, 3-[(E)-4-[5-carbamoyl-2-[(2-ethyl-5-methyl-pyrazole-3-carbonyl)amino]-7-methyl-benzimidazol-1-yl]but-2-enyl]-2-[(2-ethyl-5-methyl-pyrazole-3-carbonyl)amino]imidazo[4,5-b]pyridine-6-carboxamide Tetrahydrochloride]", "values": [{"measurement": "EC50 level, human STING WT", "setting": "[1]", "result": "pM or nM level"}, {"measurement": "pEC50", "setting": "[1]; HEK-293T-Dual Null, hSTING-wt", "result": "> 9.00"}, {"measurement": "EC50 level, human STING REF (also called H232)", "setting": "[2]", "result": "pM or nM level"}, {"measurement": "pEC50", "setting": "[2]; HEK-293T-Dual Null, hSTING-H232", "result": "> 9.00"}, {"measurement": "EC50 level, human STING HAQ", "setting": "[3]", "result": "pM or nM level"}, {"measurement": "pEC50", "setting": "[3]; HEK-293T-Dual Null, hSTING-HAQ", "result": "6.30 to 9.00"}, {"measurement": "pEC50", "setting": "[4]", "result": "6.30 to 9.00"}, {"measurement": "pEC50", "setting": "[5]", "result": "6.30 to 9.00"}, {"measurement": "EC50 level, mouse STING", "setting": "[6]", "result": "pM or nM level"}, {"measurement": "pEC50", "setting": "[6]; HEK-293T-Dual Null, mSTING-wt, read-out: EC50 mSTING-wt", "result": "6.30 to 9.00"}, {"measurement": "IFN-β level", "setting": "[7]; 0.1 uM", "result": ">800", "unit": "pg/mL"}, {"measurement": "IFN-β level", "setting": "[7]; 1 uM", "result": ">1,000 pg/ml"}, {"measurement": "IFN-β level", "setting": "[7]; 10 uM", "result": ">1,000 pg/ml"}, {"measurement": "IFN-β level", "setting": "[8]", "result": ">60,000 pg/ml"}, {"measurement": "dose related toxicity as measured by body weight loss", "setting": "[9]; 25 μg dose group", "result": "no dose related toxicity"}, {"measurement": "animals with complete tumor regression", "setting": "[9]; [10]", "result": 80, "unit": "%"}, {"measurement": "tumoricidal effect at the injected tumor", "setting": "[9]; [10]", "result": "significant tumoricidal properties"}]}
